Columns and labels:
human HIF-PHD3 = target: T1, human HIF-PHD3 (Homo sapiens, UniProt Q9H6Z9); assay: HIF-PHD inhibition assay (fluorescence polarization), human HIF-PHD3; format: biochemical; settings: 2-oxoglutaric acid 166 μmol/L
T1 construct: purchased CrystalGenomics Ltd
Experimental: (§1) The activity of the test compound to inhibit human HIF-PHD2 and human HIF-PHD3 was determined.
(§2) The value of enzyme activity was calculated by subtracting the value of fluorescence polarization before addition of the enzyme from the value of fluorescence polarization after addition of enzyme (mP value).
(§3) FAM: 5′-fluoresceinamide ACA: aminocaproic acid

human HIF-PHD2 = target: T2, human HIF-PHD2 (Homo sapiens, UniProt Q9GZT9); assay: HIF-PHD inhibition assay (fluorescence polarization), human HIF-PHD2; format: biochemical; settings: 2-oxoglutaric acid 3.33 μmol/L
T2 construct: purchased CrystalGenomics Ltd
Experimental: as §1, §2, §3

T1 sequence (Q9H6Z9 whole entry): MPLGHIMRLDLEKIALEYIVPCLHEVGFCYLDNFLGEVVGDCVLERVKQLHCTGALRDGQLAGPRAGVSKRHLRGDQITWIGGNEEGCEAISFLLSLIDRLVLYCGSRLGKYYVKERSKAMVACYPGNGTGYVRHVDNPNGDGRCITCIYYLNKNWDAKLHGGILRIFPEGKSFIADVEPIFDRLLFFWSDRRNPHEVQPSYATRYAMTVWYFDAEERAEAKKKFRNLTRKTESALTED
T2 sequence (Q9GZT9 2-426 limits assumed): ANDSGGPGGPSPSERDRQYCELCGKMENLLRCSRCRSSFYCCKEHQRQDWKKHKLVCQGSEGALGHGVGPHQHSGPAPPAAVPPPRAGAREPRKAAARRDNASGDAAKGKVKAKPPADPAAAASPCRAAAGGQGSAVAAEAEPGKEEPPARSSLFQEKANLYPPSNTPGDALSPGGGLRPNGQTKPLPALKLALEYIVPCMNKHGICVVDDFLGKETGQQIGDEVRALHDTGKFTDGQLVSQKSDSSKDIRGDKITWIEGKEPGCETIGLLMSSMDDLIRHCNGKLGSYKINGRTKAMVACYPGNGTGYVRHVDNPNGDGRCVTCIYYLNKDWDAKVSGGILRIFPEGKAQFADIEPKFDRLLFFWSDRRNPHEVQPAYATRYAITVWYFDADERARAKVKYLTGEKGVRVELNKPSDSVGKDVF

IC50 (human HIF-PHD3)	IC50 (human HIF-PHD2)	SMILES
490 nM	–	CC(c1cc(Cl)ccc1Cl)n1ncc2nc(-n3cc(C(=O)O)cn3)nc(O)c21 (racemic) [Example 264]
740 nM	31 nM	CC(c1ccc(N2CCC(C(F)(F)F)CC2)cc1)n1ncc2nc(-n3cc(C(=O)O)cn3)nc(O)c21 (racemic) [Example 423]
480 nM	44 nM	CC(c1ccc(N2CCC(F)CC2)cc1)n1ncc2nc(-n3cc(C(=O)O)cn3)nc(O)c21 (racemic) [Example 424]
390 nM	48 nM	CC1CCN(c2ccc(C(C)n3ncc4nc(-n5cc(C(=O)O)cn5)nc(O)c43)cc2)CC1 (racemic) [Example 425]
590 nM	39 nM	Cc1ccc(C(C)n2ncc3nc(-n4cc(C(=O)O)cn4)nc(O)c32)cc1 (single isomer, unassigned) [Example 292]
470 nM	22 nM	Cc1cc(C(C)n2ncc3nc(-n4cc(C(=O)O)cn4)nc(O)c32)ccc1Cl (single isomer, unassigned) [Example 294]
480 nM	55 nM	Cc1ccc(C(C)n2ncc3nc(-n4cc(C(=O)O)cn4)nc(O)c32)cc1F (single isomer, unassigned) [Example 296]
300 nM	29 nM	Cc1ccc(C(C)n2ncc3nc(-n4cc(C(=O)O)cn4)nc(O)c32)cc1Cl (single isomer, unassigned) [Example 298]
490 nM	59 nM	Cc1cc(F)cc(C(C)n2ncc3nc(-n4cc(C(=O)O)cn4)nc(O)c32)c1 (single isomer, unassigned) [Example 300]
570 nM	50 nM	Cc1cc(C(C)n2ncc3nc(-n4cc(C(=O)O)cn4)nc(O)c32)ccc1F (single isomer, unassigned) [Example 302]
230 nM	15 nM	CC(c1ccc(F)c(C(F)(F)F)c1)n1ncc2nc(-n3cc(C(=O)O)cn3)nc(O)c21 (single isomer, unassigned) [Example 304]
450 nM	62 nM	CC(c1cc(F)cc(Cl)c1)n1ncc2nc(-n3cc(C(=O)O)cn3)nc(O)c21 (single isomer, unassigned) [Example 306]
510 nM	54 nM	CC(c1cc(Cl)cc(Cl)c1)n1ncc2nc(-n3cc(C(=O)O)cn3)nc(O)c21 (single isomer, unassigned) [Example 308]
470 nM	57 nM	Cc1cc(C)cc(C(C)n2ncc3nc(-n4cc(C(=O)O)cn4)nc(O)c32)c1 (single isomer, unassigned) [Example 310]
510 nM	110 nM	Cc1ccc(Cl)cc1C(C)n1ncc2nc(-n3cc(C(=O)O)cn3)nc(O)c21 (single isomer, unassigned) [Example 312]
800 nM	61 nM	Cc1ccc(F)c(C(C)n2ncc3nc(-n4cc(C(=O)O)cn4)nc(O)c32)c1 (single isomer, unassigned) [Example 314]
470 nM	29 nM	CC(c1ccc(Cl)c(C(F)(F)F)c1)n1ncc2nc(-n3cc(C(=O)O)cn3)nc(O)c21 (single isomer, unassigned) [Example 316]
480 nM	18 nM	CC(c1cc(Cl)c(Cl)s1)n1ncc2nc(-n3cc(C(=O)O)cn3)nc(O)c21 (single isomer, unassigned) [Example 320]
630 nM	36 nM	CCC(c1ccc(F)cc1)n1ncc2nc(-n3cc(C(=O)O)cn3)nc(O)c21 (single isomer, unassigned) [Example 325]
590 nM	120 nM	CCC(c1ccc(C)cc1)n1ncc2nc(-n3cc(C(=O)O)cn3)nc(O)c21 (single isomer, unassigned) [Example 329]
420 nM	19 nM	CCC(c1ccc(F)c(F)c1)n1ncc2nc(-n3cc(C(=O)O)cn3)nc(O)c21 (single isomer, unassigned) [Example 331]
320 nM	46 nM	CCC(c1cc(F)cc(F)c1)n1ncc2nc(-n3cc(C(=O)O)cn3)nc(O)c21 (single isomer, unassigned) [Example 333]
–	76 nM	CCC(c1cc(C(F)(F)F)cc(C(F)(F)F)c1)n1ncc2nc(-n3cc(C(=O)O)cn3)nc(O)c21 (single isomer, unassigned) [Example 335]
420 nM	28 nM	CCC(c1ccc(F)c(Cl)c1)n1ncc2nc(-n3cc(C(=O)O)cn3)nc(O)c21 (single isomer, unassigned) [Example 338]
300 nM	16 nM	CCC(c1cc(F)cc(Cl)c1)n1ncc2nc(-n3cc(C(=O)O)cn3)nc(O)c21 (single isomer, unassigned) [Example 340]
480 nM	36 nM	CCC(c1cccc(C(F)(F)F)c1)n1ncc2nc(-n3cc(C(=O)O)cn3)nc(O)c21 (single isomer, unassigned) [Example 342]
400 nM	38 nM	CCC(c1ccc(Cl)c(C)c1)n1ncc2nc(-n3cc(C(=O)O)cn3)nc(O)c21 (single isomer, unassigned) [Example 347]
390 nM	67 nM	CCC(c1ccc(C)c(Cl)c1)n1ncc2nc(-n3cc(C(=O)O)cn3)nc(O)c21 (single isomer, unassigned) [Example 349]

IC50 (human HIF-PHD3)	IC50 (human HIF-PHD2)	SMILES
210 nM	24 nM	CCC(c1ccc(Cl)cc1F)n1ncc2nc(-n3cc(C(=O)O)cn3)nc(O)c21 (single isomer, unassigned) [Example 351]
540 nM	120 nM	CC(C)C(c1ccc(F)cc1)n1ncc2nc(-n3cc(C(=O)O)cn3)nc(O)c21 (single isomer, unassigned) [Example 355]
390 nM	77 nM	CC(C)C(c1ccc(C(F)(F)F)cc1)n1ncc2nc(-n3cc(C(=O)O)cn3)nc(O)c21 (single isomer, unassigned) [Example 357]
340 nM	23 nM	CC(C)C(c1ccc(F)c(F)c1)n1ncc2nc(-n3cc(C(=O)O)cn3)nc(O)c21 (single isomer, unassigned) [Example 359]
760 nM	61 nM	CC(C)C(c1cc(F)cc(F)c1)n1ncc2nc(-n3cc(C(=O)O)cn3)nc(O)c21 (single isomer, unassigned) [Example 361]
1300 nM	57 nM	CC(C)C(c1cccc(C(F)(F)F)c1)n1ncc2nc(-n3cc(C(=O)O)cn3)nc(O)c21 (single isomer, unassigned) [Example 363]
460 nM	12 nM	O=C(O)c1cnn(-c2nc(O)c3c(cnn3C(c3ccc(Cl)cc3)C3CC3)n2)c1 (single isomer, unassigned) [Example 365]
350 nM	34 nM	O=C(O)c1cnn(-c2nc(O)c3c(cnn3C(c3ccc(F)cc3)C3CC3)n2)c1 (single isomer, unassigned) [Example 367]
400 nM	35 nM	Cc1ccc(C(C2CC2)n2ncc3nc(-n4cc(C(=O)O)cn4)nc(O)c32)cc1 (single isomer, unassigned) [Example 369]
400 nM	41 nM	O=C(O)c1cnn(-c2nc(O)c3c(cnn3C(c3ccc(F)c(Cl)c3)C3CC3)n2)c1 (single isomer, unassigned) [Example 371]
650 nM	36 nM	O=C(O)c1cnn(-c2nc(O)c3c(cnn3C(c3cc(F)cc(F)c3)C3CC3)n2)c1 (single isomer, unassigned) [Example 373]
500 nM	52 nM	O=C(O)c1cnn(-c2nc(O)c3c(cnn3C(c3cccc(Cl)c3)C3CC3)n2)c1 (single isomer, unassigned) [Example 375]
340 nM	66 nM	Cc1cc(C(C2CC2)n2ncc3nc(-n4cc(C(=O)O)cn4)nc(O)c32)ccc1F (single isomer, unassigned) [Example 377]
590 nM	54 nM	CC1CCCC(n2ncc3nc(-n4cc(C(=O)O)cn4)nc(O)c32)C1 (single isomer, unassigned) [Example 399]
1200 nM	48 nM	CC1CCCC(n2ncc3nc(-n4cc(C(=O)O)cn4)nc(O)c32)C1 (single isomer, unassigned) [Example 401]
400 nM	38 nM	CC1CC(n2ncc3nc(-n4cc(C(=O)O)cn4)nc(O)c32)CC(C)(C)C1 (single isomer, unassigned) [Example 408]
430 nM	42 nM	CC1CC(n2ncc3nc(-n4cc(C(=O)O)cn4)nc(O)c32)CC(C)(C)C1 (single isomer, unassigned) [Example 410]
–	74 nM	O=C(O)c1cnn(-c2nc(O)c3c(cnn3CC3(c4ccccc4)CC3)n2)c1 [Example 122]
2100 nM	–	O=C(O)c1cnn(-c2nc(O)c3c(cnn3CC3CCNCC3)n2)c1 [Example 169]
–	160 nM	C[C@@H](c1c(F)cccc1F)n1ncc2nc(-n3cc(C(=O)O)cn3)nc(O)c21 [Example 256]
–	72 nM	C[C@@H](c1cc(F)ccc1F)n1ncc2nc(-n3cc(C(=O)O)cn3)nc(O)c21 [Example 261]
610 nM	–	C[C@@H](c1cc(Cl)ccc1Cl)n1ncc2nc(-n3cc(C(=O)O)cn3)[nH]c(=O)c21 [Example 263]
–	73 nM	Cc1cc(Cl)cc([C@@H](C)n2ncc3nc(-n4cc(C(=O)O)cn4)nc(O)c32)c1 [Example 266]
–	110 nM	CCC(c1ccc(C)c(Cl)c1)n1ncc2nc(-n3cc(C(=O)O)cn3)nc(O)c21 (centres unmarked) [Example 348]
–	44 nM	O=C(O)c1cnn(-c2nc(O)c3c(cnn3Cc3ccc(N4CCCC4=O)cc3)n2)c1 [Example 419]
–	180 nM	C[C@@H](c1ccc(F)cc1F)n1nc(C2CC2)c2nc(-n3cc(C(=O)O)cn3)nc(O)c21 [Example 460]
–	160 nM	O=C(O)c1cnn(-c2nc(O)c3c(n2)c(Cc2ccccc2)nn3CC2CCCCC2)c1 [Example 504]
